Values joined by “and” are separate entries in the source; they are usually repeats but may differ in a detail not shown here. Identical values can stand only once. Like-named read-outs stand apart in the source and are kept apart here.
How the values were obtained:
[1] = target: HIS-Keap1 full length / Biotin-Nrf2 (16-mer) (Homo sapiens, UniProt Q14145); test: biochemical
[2] = test system: NQO1 activation in BEAS-2B cells; test: BEAS-2B cellular MTT assay of NQO1 activation, 0% HSA; format: cell-based
Method: The growth rate of the BEAS-2B cells changed based on the lot of BEGM SingleQuots in the BEGM media. The cell growth rate was determined for each lot of SingleQuots. Ideally, cells were thawed into media with the new lot of SingleQuots and grown for two passages before testing; however, growing an active culture in the new lot of media for two to three passages before testing was also acceptable. Until the cell growth rate was determined, cells were seeded at different densities (cells/cm^2) in multiple tissue culture flasks in order to avoid the cells becoming more than 70% confluent. Cells should not go above 70% confluent as the cells differentiate when they become confluent. After the cells were grown in the new lot of media as described above, the number of cells per well needed to seed in the collagen plates was determined by seeding different numbers of cells per well and incubating for 48 hours. Cell confluency was checked after 48 hours and a cell number that results in just below to just above confluency was chosen for future plate seeding. Cell confluency in the assay plate was 95-100% confluent after 48 hours.
Cell media consists of BEBM basal media with the BEGM SingleQuots added. SingleQuots vials were thawed in the tissue culture hood, and GA-1000 (Gentamicin-Amphotericin) was not added.
If complete media was to be used immediately, BEBM basal media was warmed to room temperature in the hood, but not as high as 37° C. When the media was made for future use, SingleQuots were added to cold BEBM. One at a time, the SingleQuots components (except GA-1000) were added to the BEBM media. After removal of each component from the vial, the vial was rinsed with 0.5-1 mL of BEBM (depending on the volume the vial could hold) and added to the bottle of BEBM. Once all components were added, the label that comes with the SingleQuots kit was put on the bottle of media and the date was recorded. The bottle of media was mixed by gentle shaking. The media was not filtered. This media was stored at 4° C., with any leftover media disposed of one month after the date the SingleQuots were added.
BEAS-2B Cell Splitting Protocol:
First, Trypsin was warmed to 37° C. in the water bath. The media was then warmed to room temperature by letting it sit in the tissue culture hood, but not as high as 37° C. The media was aspirated from flask(s) and the flask(s) were washed with PBS. From 1 to 1.5 mL of warm trypsin were added to each flask and incubated at 37° C. until cells came off the flask on their own (~8-10 minutes), with no vigorous tapping on the flask to detach the cells.
Media was added to each flask to a total volume of 8-10 mL per flask and transferred to 15 mL conical tube(s). The cells were spun down at 120 g for 5 minutes, level 5 brake. The cells can be spun down between 100 and 150 g. Next the media was aspirated and the cell pellet was resuspended in fresh media by pipetting up and down and flicking the tube side to side. Any clumps of cells that remained were allowed to settle to the bottom of the tube before the top suspension was transferred into another tube, leaving about 1 mL of media in the original tube. The 1 mL of media and cell clumps were mixed with a single channel p1000 pipette, and any remaining clumps were removed before adding the cells in suspension to the other tube. The suspension was mixed with a pipette, an aliquot was removed, and the cells were counted. The amount of cells/cm^2 desired was calculated and the required volume of cells was added to tissue culture flasks. For example, use of SingleQuots with ~6000 cells/cm^2 was appropriate for a three day incubation and ~3000 cells/cm^2 for a five day incubation. Optimal cell density differed depending on lot of SingleQuots. The flasks were incubated at 37° C. in 5% CO2.
Day One: Seeding BEAS-2B Cells in Collagen Plates:
Plate(s) were either seeded with 0.3% or 0% HSA. While the protocol was similar for both conditions any differences are noted herein below. […]

[3] = Homo sapiens, Serum Free W, read-out: BEAS EC50 (nM) Serum Free W
[4] = Serum Free W, read-out: BEAS EC50 (nM) Serum Free W
[5] = Homo sapiens, serum free, read-out: BEAS EC50 (nM) serum free
[6] = serum free, read-out: BEAS EC50 (nM) serum free

HIS-Keap1 full length / Biotin-Nrf2 (16-mer), sequence (Q14145 whole entry): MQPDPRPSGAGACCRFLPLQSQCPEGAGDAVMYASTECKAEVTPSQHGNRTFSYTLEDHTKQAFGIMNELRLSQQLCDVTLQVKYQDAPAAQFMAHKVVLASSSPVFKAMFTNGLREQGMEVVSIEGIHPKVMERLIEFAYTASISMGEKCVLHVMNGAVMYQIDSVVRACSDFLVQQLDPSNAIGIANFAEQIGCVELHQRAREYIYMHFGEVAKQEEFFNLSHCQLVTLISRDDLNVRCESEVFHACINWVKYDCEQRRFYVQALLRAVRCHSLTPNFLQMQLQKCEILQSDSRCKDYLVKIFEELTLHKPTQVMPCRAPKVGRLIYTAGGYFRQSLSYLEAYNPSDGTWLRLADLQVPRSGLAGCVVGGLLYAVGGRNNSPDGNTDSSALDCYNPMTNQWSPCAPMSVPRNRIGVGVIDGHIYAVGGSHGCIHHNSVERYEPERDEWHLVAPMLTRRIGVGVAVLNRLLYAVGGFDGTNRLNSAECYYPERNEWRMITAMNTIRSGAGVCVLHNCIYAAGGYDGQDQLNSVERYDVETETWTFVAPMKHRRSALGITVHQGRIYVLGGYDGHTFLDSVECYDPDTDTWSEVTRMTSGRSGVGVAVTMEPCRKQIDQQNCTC

| SMILES | IC50 [1] | EC50 [2, 3] | EC50 [2, 4] | EC50 [2, 5] | EC50 [2, 6] |
| --- | --- | --- | --- | --- | --- |
| COc1cc2ccc1C(=O)N1CCc3ccc(cc3C1)C(CC(=O)O)c1cnc3c(nnn3CCCCCC2)c1C (stereo not drawn) [Compound 103] | 1.2 nM | 22.1 nM | 36.8 nM |  |  |
| Cc1c2ccc3c1nnn3CCCCCCCc1ccc(cc1)C(=O)N1CCc3ccc(cc3C1)C2CC(=O)O (stereo not drawn) [Compound 313] | < 0.1 nM and 0.4 nM |  |  | 8.8 nM |  |
| O=C(O)CC1c2ccc3c(c2)CN(CC3)C(=O)c2ccc(cc2F)OCCCCCCn2nnc3c(Cl)c1ccc32 (stereo not drawn) [Compound 250] | 2 nM and 1.9 nM |  |  | 16.4 nM | 16.5 nM |
| Cc1c2ccc(c1C)C(=O)N1CCc3ccc(cc3C1)C(CC(=O)O)c1ccc3c(c1)nnn3CCCCCCO2 (stereo not drawn) [Compound 312] | < 0.1 nM |  |  | 40.7 nM |  |
| O=C(O)CC1c2ccc3c(c2)CN(CC3)C(=O)c2ccc(cc2C(F)(F)F)OCCCCCCn2nnc3cc1ccc32 (stereo not drawn) [Compound 308] | < 0.1 nM |  |  | 910 nM |  |
| O=C(O)CC1c2ccc3c(c2)CN(CC3)C(=O)c2ccc(cn2)OCCCCCCn2nnc3cc1ccc32 (stereo not drawn) [Compound 328] | 0.9 nM and < 0.1 nM |  |  | 6710 nM |  |
| C[C@H](C(=O)O)[C@H]1c2ccc(nc2)OCCCCCc2ccc(cc2)C(=O)N2CCc3ccc1cc3C2 [Compound 60] | 580 nM and 614 nM | 333 nM | 258 nM and 226 nM |  |  |
| Cc1c2ccc(c1C)C(=O)N1CCc3ccc(cc3C1)C(CC(=O)O)c1ccc3c(nnn3CCCCCCO2)c1C (stereo not drawn) [Compound 309] | < 0.1 nM |  |  | 3.2 nM |  |
| Cc1c2cnc3c1nnn3CCCCCCc1ccc(cc1)C(=O)N1CCc3ccc(cc3C1)[C@@H]2CC(=O)O [Compound 138] | 0.1 nM |  |  | 0.5 nM | 0.3 nM |
| COc1cc2ccc1CCCCCn1nnc3c(C)c(ccc31)C(CC(=O)O)c1ccc3c(c1)CN(CC3)C2=O (stereo not drawn) [Compound 190] | 4.2 nM and 4.4 nM and 1.1 nM (2×) |  |  |  | 1 nM |
| Cn1c2cc3cc(cnc31)CCCCCCn1nnc3c(Cl)c(ccc31)C(CC(=O)O)c1ccc3c(c1)CN(CC3)C2=O (stereo not drawn) [Compound 199] | 3.7 nM and 3.6 nM |  |  | 12.7 nM | 11.9 nM |
| O=C(O)CC1c2ccc(nc2)OCCCCCc2ccc(nc2)C(=O)N2CCc3ccc1cc3C2 (stereo not drawn) [Compound 193] | 29.1 nM and 31.5 nM |  |  | 1140 nM | 768 nM |
| Cc1c2ccc3c1nnn3C/C=C/CCCc1ccc(c(F)c1)C(=O)N1CCc3ccc(cc3C1)C2C(C)C(=O)O (stereo not drawn) [Compound 375] | 1.4 nM | 2.9 nM |  |  |  |
| Cc1c2ccc3c1nnn3CCCCCc1cnc(nc1)C(=O)N1CCc3ccc(cc3C1)C2CC(=O)O (stereo not drawn) [Compound 204] | 3 nM and 2.7 nM |  |  | 2880 nM | 3290 nM |
| Cc1c2ccc3c1ncn3CCCCCCc1ccc(cc1)C(=O)N1CCc3ccc(cc3C1)[C@H]2CC(=O)O (single isomer, unassigned) [Compound 385] | 238 nM and 244 nM |  |  | 2250 nM | 2850 nM |
| Cc1cc2ncc1[C@@H]([C@@H](C)C(=O)O)c1ccc3c(c1)CN(CC3)C(=O)c1ccc(cc1)C/C=C/CCO2 [Compound 61] | 720 nM and 651 nM | 422 nM | 245 nM |  |  |
| Cc1c2ccc3c1nnn3CCCCCCc1ccc(c(F)c1)C(=O)N1CCc3ccc(cc3C1)[C@@H]2[C@H](C)C(=O)O [Compound 142] | 11.3 nM and 11.6 nM | 34.5 nM | 36.1 nM |  |  |
| Cc1c2ccc3c1nnn3CCCCCC(F)(F)Oc1ccc(cc1)C(=O)N1CCc3ccc(cc3C1)C2CC(=O)O (stereo not drawn) [Compound 311] | 0.1 nM and < 0.1 nM |  |  | 10.4 nM |  |
| O=C(O)CC1c2cnc(nc2)OCCCCCc2ccc(c(Cl)c2)C(=O)N2CCc3ccc1cc3C2 (stereo not drawn) [Compound 229] | 10.4 nM |  |  | 1430 nM | 2230 nM |
| Cc1c2cnc3c1nnn3CCCCCCc1ccc(c(F)c1)C(=O)N1CCc3ccc(cc3C1)C2CC(=O)O (stereo not drawn) [Compound 146] | 0.1 nM |  |  | 0.2 nM |  |
| Cc1c2n(C)c3ccc(cc13)CCCCCCn1nnc3c(C)c(cnc31)[C@H](CC(=O)O)c1ccc3c(c1)CN(CC3)C2=O [Compound 68] | 0.3 nM | 0.4 nM | 0.3 nM |  |  |

— patent publication US12692274B2, “Tetrahydroisoquinoline derivatives for the treatment of red blood disorders and inflammatory diseases” (Sanofi, priority 2020, dated 2026)
